Measured values published in patent USRE49444E1, “Method of treating osteoporosis comprising administration of PTHrP analog” (priority 2006, dated 2023).
Read-outs that look alike come from different tables or passages of the source.

Columns and labels:
clinical = settings: human, in vivo; for AUC: AUC0-tau
Experimental: (§3) A randomized, double-blind, placebo-controlled, multiple-dose design study of Glu^22,25, Leu^23,28,31, Aib^29, Lys^263]hPTHrP(1-34)NH2 (SEQ ID NO.: 2) was conducted at 2 sites. A total of 39 eligible subjects were sequentially enrolled into 1 of 4 study groups consisting of 10 subjects each, with the exception of Group 2, which had 9 subjects. Within each study group, 8 subjects were randomly assigned to receive SEQ ID NO.: 2 and 2 subjects were randomly assigned to receive placebo (In Group 2 only, 1 subject received placebo). All subjects in the study were judged by the investigator to be healthy, normal volunteers. The test products were Glu^22,25, Leu^23,28,31, Aib^29, Lys^26,30]hPTHrP(1-34)NH2 (SEQ ID NO.: 2) (0.1 mg/vial) and Placebo (0.9% sodium chloride injection, USP). All subjects received a single subcutaneous (SC) dose of Glu^22,25, Leu^23,28,31, Aib^29, Lys^26,30]hPTHrP(1-34)NH2 (SEQ ID NO.: 2) or placebo for 7 days.
(§4) Criteria for Evaluation: Pharmacokinetics: PK sampling for plasma SEQ ID NO.: 2 on Days 1 and 7 was performed at the following time points: Predose (0 hour), 0.25, 0.5, 1, 1.5, 2, 3, 4, 6, 8, 12, and 24 hours postdose. Additionally, predose samples were taken for trough drug analysis on Days 3 to 6. The following PK parameters were computed for Days 1 and 7: AUC(0-t), AUC(0-∞) (Day 1 only), AUC(0-τ), AUCR (Day 1 only), Cmax, Tmax, Tlast, CL/F, Kel, t1/2, and AI (Day 7 only). These parameters were calculated from the overall (24 hours) plasma concentration-versus-time profiles by noncompartmental methods using WinNonlin® Pro Version 5.01 and SAS® Version 8.2. Moreover, the ln-transformed PK parameters Cmax, AUC(0-t), AUC(0-τ), and AUC(0-∞) are presented.
(§5) Plasma concentration and PK parameters for SEQ ID NO.: 2 were listed by subject and summarized by treatment and day using descriptive statistics (mean, standard deviation [SD], coefficient of variation [CV %], standard error of the mean [SEM], sample size [N], minimum [min], maximum [max], and median). Additionally, geometric means and ln-transformed values were provided for Cmax and AUCs. Dose proportionality was evaluated for Days 1 and 7 SEQ ID NO.: 2 data using the following power model: Ln(Y)=β0+β Ln Dose+ε where Y represents the PK parameters AUC(0-28), AUC(0-τ), AUC(0-t), and Cmax. Dose proportionality requires that β=1 for dose-dependent parameters.
(§6) The model was used to calculate the 95% confidence intervals (CI) for the slope of the ln-transformed PK parameters AUCs and Cmax. Dose proportionally was concluded if the 95% CI for the PK parameters included the value of 1.
(§7) For those cases in which dose proportionality could not be concluded within all doses investigated, dose proportionality analysis was performed for the first 3 (by excluding the highest dose) and the last 3 doses (by excluding the lowest dose).

[1] = human, in vivo
Experimental: as §3, §4, §5, §6, §7

[2] = test system: serum PD markers (total and ionized calcium, phosphorus, PTH(1-84), 1,25-dihydroxyvitamin D, P1NP, CTX); format: in vivo, human
Excerpt: Predose Days: Days −30 and −2
PTH(1-84) and 1,25-dihydroxyvitamin D (vitamin D):
Procollagen Type 1 N-Propeptide (P1NP) and C-Telopeptide
Predose (Day −2), Days 3, 8, and 14.
(§1) The data for each PD marker in serum (total and ionized calcium, phosphorus, PTH(1-84), 1,25-dihydroxyvitamin D, P1NP, and CTX) and in urine (calcium, phosphorus, c-AMP, and creatinine) following SEQ ID NO.: 2 and placebo doses were listed for each subject and summarized by SEQ ID NO.: 2 dose using descriptive statistics (mean, SD, CV %, SEM, N, min, max, and median).

[3] = test system: urine PD markers (calcium, phosphorus, c-AMP, creatinine); assay: Clinical study: pharmacodynamic markers in urine; format: in vivo, human
Experimental: Urine PD Samples (Calcium Phosphorus Cyclic AMP [c-AMP], and Creatinine) were Obtained at the Following Time Points:
Day −1/Day 1: −24 to −18 hours, −18 to −12 hours, and −12 hours to 0 hours.
Days 1 and 7: 0 to 6 hours, 6 to 12 hours, and 12 to 24 hours.
The following parameters in urine were presented for each of the PD markers using SAS® Version 8.2: Volume (Vol.), concentration (Conc.), amount (Ae), cumulative amount (Cum. Ae), and excretion rates.
as §1

[4] = Chemical stability of different formulations (SEQ ID NO.: 2 content); format: physicochemical; settings: Table 6 formulations
Experimental: (§2) Solutions were prepared at room temperature, by dissolution of the various ingredients in water for injection, with stirring over <30 minutes to ensure complete dissolution, Solutions were filtered through 0.2 micron filter and filled into glass vials, to which a rubber stopper was applied and crimped in place to ensure complete closure.
Table 6 details the chemical stability of the formulations described in Example 4.

[5] = test system: Bacteria and Yeasts/moulds; assay: Preservative effectiveness test (European Pharmacopoeia 5.1.3), overall result; format: cell-based; settings: for preservative efficacy: after 3 and 4.5 months storage; for Preservative effectiveness test Results: after manufacturing
Experimental: as §2
The solutions were then stored for up to 3 months at 25° C., and up to 4.5 months at 5° C. and the preservative effectiveness test repeated. as described in Example 5.

Staphylococcus aureus = assay: Preservative effectiveness test, plate-count method; format: cell-based; settings: after 3 and 4.5 months storage

In the case of `CC[C@H](C)[C@H](NC(=O)[C@H](CO)NC(=O)[C@H](CCCCN)NC(=O)CNC(=O)[C@H](CCCCN)NC(=O)[C@H](CC(=O)O)NC(=O)[C@H](Cc1cnc[nH]1)NC(=O)[C@H](CC(C)C)NC(=O)[C@H](CC(C)C)NC(=O)[C@H](CCC(N)=O)NC(=O)[C@H](Cc1cnc[nH]1)NC(=O)[C@H](CCC(=O)O)NC(=O)[C@H](CO)NC(=O)[C@@H](NC(=O)[C@H](C)N)C(C)C)C(=O)N[C@@H](CCC(N)=O)C(=O)N[C@@H](CC(=O)O)C(=O)N[C@@H](CC(C)C)C(=O)N[C@@H](CCCNC(=N)N)C(=O)N[C@@H](CCCNC(=N)N)C(=O)N[C@@H](CCCNC(=N)N)C(=O)N[C@@H](CCC(=O)O)C(=O)N[C@@H](CC(C)C)C(=O)N[C@@H](CC(C)C)C(=O)N[C@@H](CCC(=O)O)C(=O)N[C@@H](CCCCN)C(=O)N[C@@H](CC(C)C)C(=O)N[C@@H](CC(C)C)C(=O)NC(C)(C)C(=O)N[C@@H](CCCCN)C(=O)N[C@@H](CC(C)C)C(=O)N[C@@H](Cc1cnc[nH]1)C(=O)N[C@H](C(=O)N[C@@H](C)C(N)=O)[C@@H](C)O` [SEQ ID NO.: 2, [Glu^22,25, Leu^23,28,31, Aib^29, Lys^26,30]hPTHrP(1-34)NH2], the half-life (clinical; mean t1/2) is reported as 1.05 to 2.59 h, the AUC(0-inf) (clinical; sc, 5 ug) is reported as 0.187 ± 0.0545 ng·h/mL and the AUC0-t (clinical; sc, 5 ug) is reported as 0.0784 ± 0.0455 ng·h/mL. For the same compound, the AUC (clinical; sc, 5 ug) was 0.187 ± 0.0544 ng·h/mL, the CL/F (clinical; sc, 5 ug) was 476 mL/min and the Cmax (clinical; sc, 5 ug) was 0.0431 ± 0.0107 ng/mL. For the same compound, the Tmax (clinical; sc, 5 ug) was 0.566 h, the half-life (clinical; sc, 5 ug, t1/2) was 2.59 ± 0.69 h and the AUC(0-inf) (clinical; sc, 20 ug) was 0.257 ± 0.119 ng·h/mL. It also gave an AUC0-t (clinical; sc, 20 ug) of 0.161 ± 0.111 ng·h/mL, an AUC (clinical; sc, 20 ug) of 0.257 ± 0.119 ng·h/mL and a CL/F (clinical; sc, 20 ug) of 1570 mL/min. The Cmax (clinical; sc, 20 ug) was 0.115 ± 0.0539 ng/mL, the Tmax (clinical; sc, 20 ug) was 0.296 h and the half-life (clinical; sc, 20 ug, t1/2) was 1.05 ± 0.314 h. It also gave an AUC(0-inf) (clinical; sc, 40 ug) of 0.593 ± 0.281 ng·h/mL, an AUC0-t (clinical; sc, 40 ug) of 0.42 ± 0.275 ng·h/mL and an AUC (clinical; sc, 40 ug) of 0.593 ± 0.281 ng·h/mL. It also gave a CL/F (clinical; sc, 40 ug) of 1400 mL/min, a Cmax (clinical; sc, 40 ug) of 0.223 ± 0.099 ng/mL and a Tmax (clinical; sc, 40 ug) of 0.494 h. The half-life (clinical; sc, 40 ug, t1/2) was 1.65 ± 0.254 h, the AUC(0-inf) (clinical; sc, 80 ug) was 1.06 ± 0.514 ng·h/mL and the AUC0-t (clinical; sc, 80 ug) was 0.95 ± 0.494 ng·h/mL. It also gave an AUC (clinical; sc, 80 ug) of 1.05 ± 0.511 ng·h/mL, a CL/F (clinical; sc, 80 ug) of 1580 mL/min and a Cmax (clinical; sc, 80 ug) of 0.31 ± 0.0543 ng/mL. The Tmax (clinical; sc, 80 ug) was 0.752 h, the half-life (clinical; sc, 80 ug, t1/2) was 2.3 ± 0.715 h and the Apparent clearance ([1]; 80 ug) was 82.74 to 103.9 L/h. The “Dose proportionality Slope, AUC (0-inf)” value ([1]; 80 ug) was 0.9957, the “Dose proportionality Slope, AUC (0-t)” value ([1]; 80 ug) was 0.9071 and the “Dose proportionality Slope, AUC (0-tau)” value ([1]; 80 ug) was 1.141. The “increases in PK parameters Cmax, AUC(0-f), AUC(0-τ), AUC(0-∞) with dose” value ([1]; 80 ug) was “dose-proportional”, the AUC0-t ([1]; sc, 5 ug) was 0.080704 ± 0.030441 ng·h/mL and the AUCR ([1]; sc, 5 ug) was 0.521 ± 0.111. The CL/F ([1]; sc, 5 ug) was 28.56 L/h, the Cmax ([1]; sc, 5 ug) was 0.0408 ± 0.00763 ng/mL and the Tmax ([1]; sc, 5 ug) was 1.05 (0.514, 1.53) hr. For the same compound, the “ln (AUC0-inf)” value ([1]; sc, 5 ug) was 5.200 ± 0.3016, the “ln (AUC0-tau)” value ([1]; sc, 5 ug) was 5.198 ± 0.3007 and the AUC0-t ([1]; sc, 20 ug) was 0.17158 ± 0.082031 ng·h/mL. It also gave an AUC0-tau ([1]; sc, 20 ug) of 0.2282 ± 0.095154 ng·h/mL, an AUCR ([1]; sc, 20 ug) of 0.828 ± 0.0449 and a CL/F ([1]; sc, 20 ug) of 103.9 ± 53.01 L/h. The Cmax ([1]; sc, 20 ug) was 0.109 ± 0.0192 ng/mL, the Tmax ([1]; sc, 20 ug) was 0.512 (0.250, 3.05) hr and the “ln (AUC0-inf)” value ([1]; sc, 20 ug) was 5.456 ± 0.4957. The t1/2 ([1]; sc, 20 ug) was 1.05 ± 0.244 h, the AUC0-t ([1]; sc, 40 ug) was 0.40798 ± 0.2197 ng·h/mL and the AUC0-tau ([1]; sc, 40 ug) was 0.48188 ± 0.22619 ng·h/mL. The AUCR ([1]; sc, 40 ug) was 0.838 ± 0.0703, the CL/F ([1]; sc, 40 ug) was 102.0 ± 53.34 L/h and the Cmax ([1]; sc, 40 ug) was 0.207 ± 0.0777 ng/mL. The Tmax ([1]; sc, 40 ug) was 0.492 (0.349, 1.00) hr, the “ln (AUC0-inf)” value ([1]; sc, 40 ug) was 6.280 ± 0.5203 and the t1/2 ([1]; sc, 40 ug) was 1.43 ± 0.397 h. It also gave an AUC0-t ([1]; sc, 80 ug) of 1.003 ± 0.38345 ng·h/mL, an AUC0-tau ([1]; sc, 80 ug) of 1.0803 ± 0.40857 ng·h/mL and an AUCR ([1]; sc, 80 ug) of 0.892 ± 0.0369. For the same compound, the CL/F ([1]; sc, 80 ug) was 82.74 ± 26.95 L/h, the Cmax ([1]; sc, 80 ug) was 0.436 ± 0.0688 ng/mL and the Tmax ([1]; sc, 80 ug) was 0.507 (0.500, 1.00) hr. For the same compound, the “ln (AUC0-inf)” value ([1]; sc, 80 ug) was 6.855 ± 0.5063, the t1/2 ([1]; sc, 80 ug) was 1.69 ± 0.425 h and the “P1NP concentrations in serum, maximum increase above baseline” value ([2]; 80 μg dose, Days 3, 8, and 14) was “up to 18±12 ng/mL”. For the same compound, the “1,25-dihydroxyvitamin D concentrations in serum” value ([2]; 40 and 80 μg doses, after 2 hours postdose on Day 1 and most of the time on Day 7) was “steadily rose above the predose levels”, the “serum phosphorus concentrations versus placebo” value ([2]; Days 1 and 7) was “below the placebo concentration levels” and the “Serum PTH (1-84) concentrations” value ([2]; Days 1 and 7, during most of the sampling times) was “remained below the predose levels and placebo dose”. For the same compound, the “Total calcium concentrations in serum versus reference range” value ([2]; human, in vivo) was “remained within the reference range”, the “mean urinary excretion rates of calcium” value ([3]; Day 1) was “approximately at predose levels” and the “Mean urinary excretion rates of c-AMP” value ([3]; Days 1 and 7) was “increased”. The “Mean urinary excretion rates of creatinine” value ([3]; Days 1 and 7) was “fluctuated around the predose levels”, the “Mean urinary excretion rates of phosphorus” value ([3]; Days 1 and 7) was “fluctuated around the predose levels” and the “solution stability, influence of the preservative” value [4] was “not significantly influenced by the preservative selected”.

For `OCc1ccccc1` [Benzyl Alcohol], the preservative efficacy [5] was “not compliant”, the “Preservative effectiveness test Results” value [5] was “compliant” and the “rate of kill against S Aureus” value (Staphylococcus aureus) was “insufficient rate of kill”.

In the case of `Oc1ccccc1` [Phenol], the preservative efficacy [5] is reported as “maintained” and the “Preservative effectiveness test Results” value [5] is reported as “compliant”.
